Laboratory results: the NIST ThermoML archive (doi:10.1021/je800110r)
“And” between values parts separate entries of the source, which are not always exact repeats. Equal entries are not always repeated.

Conditions: Liquid, Vibrating tube method

CCCCCCCCCC [decane]
Conditions | mass density
303.16 K, 24314 kPa | 740.3 kg/m3
303.16 K, 24549 kPa | 740.5 kg/m3
303.16 K, 24602 kPa | 740.4 kg/m3
303.16 K, 24630 kPa | 740.5 kg/m3
303.16 K, 24682 kPa | 740.5 kg/m3
303.16 K, 24710 kPa | 740.6 kg/m3
303.16 K, 24755 kPa | 740.6 kg/m3
303.16 K, 24776 kPa | 740.5 kg/m3
303.16 K, 25088 kPa | 740.7 kg/m3
303.16 K, 25114 kPa | 740.9 kg/m3
303.16 K, 25147 kPa | 740.9 kg/m3
303.16 K, 25173 kPa | 740.9 kg/m3
303.16 K, 25208 kPa | 740.9 kg/m3
303.16 K, 25234 kPa | 740.9 kg/m3
303.16 K, 25263 kPa | 740.9 kg/m3
303.16 K, 25293 kPa | 741 kg/m3
303.16 K, 25324 kPa | 740.9 kg/m3
303.16 K, 25354 kPa | 741.1 kg/m3
303.16 K, 25385 kPa | 741.1 kg/m3
303.16 K, 25420 kPa | 741.1 kg/m3
303.16 K, 25450 kPa | 741 kg/m3
303.16 K, 25481 kPa | 741.1 kg/m3
303.16 K, 25524 kPa | 741.1 kg/m3
303.16 K, 25559 kPa | 741.1 kg/m3
303.16 K, 25586 kPa | 741.1 kg/m3
303.16 K, 25617 kPa | 741.1 kg/m3
303.16 K, 25802 kPa | 741.3 kg/m3
303.17 K, 10063 kPa | 730.2 kg/m3
303.17 K, 10074 kPa | 730.3 kg/m3
313.14 K, 1292 kPa | 715.7 kg/m3
313.14 K, 1332 kPa | 715.8 kg/m3
313.14 K, 1362 kPa | 715.8 kg/m3
313.14 K, 1410 kPa | 715.8 kg/m3
313.14 K, 1449 kPa | 715.7 kg/m3
313.14 K, 1483 kPa | 715.9 kg/m3
313.14 K, 1531 kPa | 715.8 kg/m3
313.14 K, 1584 kPa | 715.9 kg/m3
313.14 K, 1629 kPa | 716 kg/m3
313.14 K, 1669 kPa | 716 kg/m3
313.14 K, 1710 kPa | 716.1 kg/m3
313.14 K, 1760 kPa | 716.1 kg/m3
313.14 K, 1825 kPa | 716.1 kg/m3
313.14 K, 1889 kPa | 716.2 kg/m3
313.14 K, 1951 kPa | 716.3 kg/m3
313.14 K, 2000 kPa | 716.3 kg/m3
313.14 K, 2044 kPa | 716.3 kg/m3
313.14 K, 2096 kPa | 716.3 kg/m3
313.14 K, 2138 kPa | 716.4 kg/m3
313.14 K, 2175 kPa | 716.4 kg/m3
313.14 K, 2217 kPa | 716.4 kg/m3
313.14 K, 2260 kPa | 716.5 kg/m3
313.14 K, 2304 kPa | 716.5 kg/m3
313.14 K, 2364 kPa | 716.6 kg/m3
313.14 K, 2419 kPa | 716.7 kg/m3
313.14 K, 2474 kPa | 716.7 kg/m3
313.14 K, 2523 kPa | 716.8 kg/m3
313.14 K, 2591 kPa | 716.7 kg/m3
313.14 K, 2653 kPa | 716.8 kg/m3
313.14 K, 2699 kPa | 716.8 kg/m3
313.14 K, 2782 kPa | 717 kg/m3
313.14 K, 2826 kPa | 717.1 kg/m3
313.14 K, 2854 kPa | 717 kg/m3
313.14 K, 2900 kPa | 716.9 kg/m3
313.14 K, 2941 kPa | 717.2 kg/m3
313.14 K, 2970 kPa | 717 kg/m3
313.14 K, 3000 kPa | 717.1 kg/m3
313.14 K, 3048 kPa | 717.2 kg/m3
313.14 K, 3086 kPa | 717.2 kg/m3
313.14 K, 3137 kPa | 717.3 kg/m3
313.14 K, 3192 kPa | 717.3 kg/m3
313.14 K, 3234 kPa | 717.4 kg/m3
313.14 K, 3277 kPa | 717.4 kg/m3
313.14 K, 3305 kPa | 717.4 kg/m3
313.14 K, 3306 kPa | 717.5 kg/m3
313.14 K, 3307 kPa | 717.5 kg/m3
313.14 K, 3322 kPa | 717.5 kg/m3
313.14 K, 3343 kPa | 717.4 kg/m3
313.14 K, 3360 kPa | 717.4 kg/m3
313.14 K, 3378 kPa | 717.5 kg/m3
313.14 K, 3404 kPa | 717.4 kg/m3
313.14 K, 3422 kPa | 717.5 kg/m3
313.14 K, 3447 kPa | 717.5 kg/m3
313.14 K, 3468 kPa | 717.6 kg/m3
313.14 K, 3499 kPa | 717.6 kg/m3
313.14 K, 3518 kPa | 717.6 kg/m3
313.14 K, 3549 kPa | 717.7 kg/m3
313.14 K, 3576 kPa | 717.6 kg/m3
313.14 K, 3598 kPa | 717.8 kg/m3
313.14 K, 3629 kPa | 717.7 kg/m3
313.14 K, 3654 kPa | 717.7 kg/m3
313.14 K, 3674 kPa | 717.8 kg/m3
313.14 K, 3693 kPa | 717.8 kg/m3
313.14 K, 3713 kPa | 717.8 kg/m3
313.14 K, 3739 kPa | 717.8 kg/m3
313.14 K, 3768 kPa | 717.8 kg/m3
313.14 K, 3821 kPa | 717.9 kg/m3
313.14 K, 3843 kPa | 718 kg/m3
313.14 K, 3850 kPa | 717.8 kg/m3
313.14 K, 3853 kPa | 717.9 kg/m3
313.14 K, 3854 kPa | 717.9 kg/m3
313.14 K, 3856 kPa | 717.8 kg/m3
313.14 K, 3858 kPa | 717.9 kg/m3
313.14 K, 3860 kPa | 717.9 kg/m3
313.14 K, 3862 kPa | 717.9 kg/m3
313.14 K, 3864 kPa | 717.9 kg/m3
313.14 K, 3865 kPa | 717.9 kg/m3 and 717.8 kg/m3
313.14 K, 3876 kPa | 717.9 kg/m3
313.14 K, 3895 kPa | 718 kg/m3
313.14 K, 3915 kPa | 718 kg/m3
313.14 K, 3933 kPa | 718.1 kg/m3
313.14 K, 3949 kPa | 717.9 kg/m3
313.14 K, 3970 kPa | 718 kg/m3
313.14 K, 3989 kPa | 718.1 kg/m3
313.14 K, 4003 kPa | 718.1 kg/m3
313.14 K, 4028 kPa | 718.1 kg/m3
313.14 K, 4048 kPa | 718 kg/m3
313.14 K, 4070 kPa | 718.1 kg/m3
313.14 K, 4098 kPa | 718.1 kg/m3
313.14 K, 4121 kPa | 718.1 kg/m3
313.14 K, 4141 kPa | 718.2 kg/m3
313.14 K, 4159 kPa | 718.2 kg/m3
313.14 K, 4186 kPa | 718.2 kg/m3
313.14 K, 4203 kPa | 718.3 kg/m3
313.14 K, 4224 kPa | 718.3 kg/m3
313.14 K, 4245 kPa | 718.3 kg/m3
313.14 K, 4267 kPa | 718.3 kg/m3
313.14 K, 4287 kPa | 718.2 kg/m3
313.14 K, 4309 kPa | 718.3 kg/m3
313.14 K, 4328 kPa | 718.3 kg/m3
313.14 K, 4357 kPa | 718.4 kg/m3
313.14 K, 4386 kPa | 718.4 kg/m3
313.14 K, 4407 kPa | 718.4 kg/m3
313.14 K, 4434 kPa | 718.3 kg/m3
313.14 K, 4451 kPa | 718.4 kg/m3
313.14 K, 4477 kPa | 718.5 kg/m3
313.14 K, 4494 kPa | 718.5 kg/m3
313.14 K, 4509 kPa | 718.5 kg/m3
